Source: PubChem BioAssay (NCI)
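How tested: cells in 96-well plates exposed to compound for 48 hours at five concentrations. GI50 is the concentration that inhibits growth by half. At the TGI there is no net growth.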 Where a SMILES comes first, the peptide text is derived from it. The star is where a group is joined. Boc = CC(C)(C)OC(=O)*

What was measured:
Assay in all cases: DTP human tumour cell line panel, 48 h
[1] = system: SK-MEL-28 melanoma
[2] = system: HCT-116 colon
[3] = system: NCI-H226 lung
[4] = system: M14 melanoma
[5] = system: COLO 205 colon
[6] = system: HT29 colon
[7] = system: SN12C renal
[8] = system: HCC-2998 colon
[9] = system: 786-0 renal
[10] = system: SF-539 CNS
[11] = system: LOX IMVI melanoma
[12] = system: OVCAR-3 ovarian

Row | Structure (SMILES) | TGI [1] [µM] | TGI [2] [µM] | TGI [3] [µM] | TGI [4] [µM] | TGI [5] [µM] | TGI [6] [µM] | TGI [7] [µM] | TGI [8] [µM] | TGI [9] [µM] | TGI [10] [µM] | TGI [11] [µM] | TGI [12] [µM] | GI50 [3] [µM] | GI50 [6] [µM] | GI50 [10] [µM] | GI50 [11] [µM]
1 | Cc1nc2ccccc2n1CCc1nc2ccccc2s1 | > 100 | > 100 | 42.9 | > 100 | > 100 | > 100 | > 100 | > 100 | > 100 | > 100 | > 100 | > 100 |  |  |  | 
2 | COc1ccc(CNc2nc3ccccc3nc2-c2cccs2)cc1 | > 100 | > 100 | > 100 |  | > 100 | > 100 |  | > 100 | > 100 | > 100 | 43.7 | > 100 |  |  |  | 
3 | O=c1[nH]cnc2c1ncn2[C@H]1CO[C@@H](CO)[C@@H]1O | > 100 | > 100 | > 100 |  | > 100 | > 100 | > 100 | > 100 | > 100 | > 100 | > 100 | > 100 |  |  |  | 
4 | NS(=O)(=O)c1ccc(/C=C/c2cccc(O)c2)cc1 | > 100 | > 100 | 74.3 | > 100 | 45.9 | > 100 | > 100 | > 100 | > 100 | > 100 | > 100 | 80.4 | 25.8 | 43.3 | 36.7 | 43
5 | O=C1CC(c2cccc(Cl)c2)n2cccc21 (stereo unspecified) | > 100 | > 100 | > 100 | > 100 | > 100 | > 100 | > 100 | > 100 | > 100 | > 100 | > 100 | > 100 |  |  |  | 
6 | COc1cc2c(cc1OCCCC(=O)Nc1cc(C(=O)Nc3cc(C(=O)NCCCN(C)C)n(C)n3)n(C)n1)N=CC1CCCN1C2=O (stereo unspecified) | 30.4 | 34 | > 100 | 33.8 | 26.3 | 30.8 | 30.1 | 37.9 | 35.5 | 44.1 | 57 | 33 |  |  |  | 
7 | CC(=O)Nc1ccc(Nc2nc(=O)[nH]c(=O)[nH]2)cc1 | > 100 | > 100 | > 100 | > 100 | > 100 | > 100 | > 100 | > 100 | > 100 | > 100 | > 100 | > 100 |  |  |  | 
8 | CN(C)CCOc1ccc(-c2c(Oc3ccc(Cl)cc3)c(=O)oc3ccccc23)cc1 |  | > 32.9 | > 53.9 | 3.12 | > 39 | > 38.7 | > 43.6 | 12.3 | > 27.9 | > 62.5 | > 35.7 | 34.3 |  |  |  | 
9 | Clc1ccc(-c2nc(-c3ccc(Cl)cc3)[s+]s2)cc1 | > 100 | > 100 |  | > 100 | > 100 | > 100 | > 100 | > 100 | > 100 | > 100 | > 100 | > 100 |  |  |  | 
10 | Cc1nn(-c2ccccc2)c(C)c1/C=N/NC(=O)c1sc(=S)n(-c2ccccc2)c1N | 48 | 34.5 | 79.1 | > 100 | 3.55 | 19.7 | > 100 | 13.5 | > 100 | 25.6 | 5.12 | > 100 |  |  |  | 
11 | CC1CC[C@]2(C(=O)O)CCC3(C)C(=C2[C@H]1C)C=CC1[C@@]2(C)CC[C@H](O)C(C)(C)C2CC[C@]13C (stereo partly specified) | 98.4 | 64.1 | > 100 | > 100 | > 100 | > 100 | > 100 | 73.8 | > 100 | 50.9 | > 100 | 73.1 |  |  |  | 
12 | OC1CN=C2c3ccccc3C(O)(c3ccc(Cl)cc3)N2C1 (stereo unspecified) | > 100 | > 100 | > 100 | 30.4 | 37.8 | > 100 | > 100 | 35.5 | > 100 | > 100 | > 100 | > 100 |  |  |  | 
13 | CC1(C)CCOC(=O)C(Cl)CC1Cl (stereo unspecified) | > 100 | > 100 | > 100 | > 100 | > 100 | > 100 | > 100 | > 100 | > 100 | > 100 | > 100 | > 100 |  |  |  | 
14 | Clc1ccc(OCc2nnc(CCCCCCCCc3nnc(COc4ccc(Cl)cc4Cl)o3)o2)c(Cl)c1 | > 100 | > 100 | > 100 | > 100 | > 100 | > 100 | > 100 | > 100 | > 100 |  |  |  |  |  |  | 
15 | CC(NC(=O)C(NC(=O)OC(C)(C)C)C(C)C)C(=O)NCC(=O)O (stereo not drawn) (Boc-Val-Ala-Gly-OH; configuration not given here) | > 100 | > 100 |  | > 100 | > 100 | > 100 | > 100 | > 100 | > 100 | > 100 |  | > 100 |  |  |  | 
16 | Fc1cccc2nc(-c3ccccc3)cc(OCc3ccccc3)c12 | > 100 | > 100 | > 100 | > 100 | > 100 | > 100 | > 100 | > 100 | > 100 |  | > 100 | > 100 |  |  |  | 
17 | O=[N+]([O-])C(=C(NCc1ccccc1)NCc1ccccc1)C(Cl)=C(Cl)Cl | > 100 | > 100 | 90.7 | 75.8 | 36.1 | > 100 | > 100 | > 100 | > 100 | > 100 | 37.8 | 69.2 |  |  |  | 
18 | O=S1(=O)c2ccccc2N2CCCc3cc(Cl)cc1c32 | > 100 | > 100 | > 100 | > 100 | > 100 | > 100 | > 100 | > 100 | > 100 | > 100 | > 100 | > 100 |  |  |  | 
19 | Nc1cc(CO)cc(Nc2c3ccccc3nc3occc23)c1 | 72.4 | 73.7 | > 100 | 93.2 | 85.7 | 30.5 | > 100 | > 100 | 77.4 | 69.6 | > 100 | > 100 |  |  |  | 

Row | Structure (SMILES) | TGI [1] [µM] | TGI [2] [µM] | TGI [3] [µM] | TGI [4] [µM] | TGI [5] [µM] | TGI [6] [µM] | TGI [7] [µM] | TGI [8] [µM] | TGI [9] [µM] | TGI [10] [µM] | TGI [11] [µM] | TGI [12] [µM] | GI50 [3] [µM] | GI50 [6] [µM] | GI50 [10] [µM] | GI50 [11] [µM]
20 | CN(C)c1ccc(C(c2ccc(N(C)C)cc2)c2ccc([N+](=O)[O-])cc2)cc1 | > 100 | > 100 | > 100 | > 100 | > 100 | > 100 | > 100 | > 100 | > 100 | > 100 | > 100 | > 100 |  |  |  | 
21 | O=C1CSC2(CCN(CCCN3c4ccccc4Sc4ccc(Cl)cc43)CC2)N1 | 28.9 | 19.4 | 40.7 | 20.6 | 22.5 | 11.9 | 22.7 | 14.4 | 23.2 | 26.4 | 16.6 | 22.1 |  |  |  | 
22 | Cc1ccc(-n2c(C)nc3c2C(=O)c2ccccc2C3=O)cc1 | > 100 | 21.4 | > 100 | > 100 | 41.8 | > 100 | > 100 | > 100 | > 100 | 86.1 | 97.2 | 73.2 |  |  |  | 
23 | CC1=Nn2c(nc3sc4c(c3c2=O)CCCC4)SC1 | > 100 | > 100 | > 100 | > 100 | > 100 | > 100 | > 100 | > 100 | > 100 | > 100 | 53.7 | > 100 |  |  |  | 
24 | NNC(=O)c1ccccc1NC(=O)/C(=C/c1ccccc1)NC(=O)c1ccccc1 | > 100 | > 100 | > 100 | > 100 | > 100 | > 100 | > 100 | > 100 | > 100 | > 100 | > 100 | > 100 |  |  |  | 
25 | COc1cccc(C2c3cc4c(cc3OC(N3CCOCC3)C2C)OCO4)c1O (stereo unspecified) | > 61.8 | 16.6 | 20.9 | 25 | 22.7 | 28.8 | 60.5 | 21.9 | 53.6 | 9.66 | 25 | 30.8 |  |  |  | 
26 | COc1ccc2nc3c([N+](=O)[O-])ccc4c3c(c2c1)NCCN4C | 6.5 | 2.88 | 3.59 | 2.8 | 2.54 | 12.4 | 9.29 | 4.63 | 3.37 | 2.62 | 4.71 | 5.62 |  |  |  | 
27 | CC1=C(C#N)S(=O)(=O)c2c(oc(C)c2C)N1 | > 100 | > 100 | > 100 | > 100 |  | > 100 | > 100 | > 100 | > 100 | > 100 | > 100 | > 100 |  |  |  | 
28 | Cc1nc2c(Br)cc(Br)cc2c(=O)n1-c1ccccc1N | > 100 | 66.9 | 99.6 | > 100 | 44 | 65.4 | > 100 | > 100 | > 100 | > 100 | > 100 | > 100 |  |  |  | 
29 | Cc1cc2ccccc2c[n+]1CC(=O)CC([O-])(C(F)(F)F)C(F)(F)F | > 100 | > 100 | > 100 | > 100 | > 100 | > 100 | > 100 | > 100 | > 100 | > 100 | > 100 | > 100 |  |  |  | 
30 | CC(Nc1cc(Cl)cc(Cl)c1)c1ccncc1 (stereo unspecified) | 97.8 | 31.6 | 25 | 33.4 | 29.8 | 88.8 |  | 37.1 | 51.3 | 40.8 | 24.8 | 35.7 |  |  |  | 
31 | CCOC(=O)/C(=C\c1ccc(CO)o1)P(=O)(OCC)OCC | 82.3 | 43.8 | > 100 | 98 | 51 | > 100 | 96.2 | > 100 | 45.3 | 40.3 | 41.3 | 59.9 |  |  |  | 
32 | CCCCNC(=S)Nc1nc(C(=O)NNS(=O)(=O)c2ccccc2)cs1 |  | 69.5 |  | > 100 | 38.6 |  | 62.5 | 97.7 | > 100 | > 100 | 39.2 | 54.2 |  |  |  | 
33 | CN(C)Cc1cc(C(=O)O)cc(CN(C)C)c1O | > 100 | > 100 | > 100 | > 100 | > 100 | > 100 | > 100 | > 100 | > 100 |  | > 100 | > 100 |  |  |  | 
34 | O=C1/C(=C/c2cccs2)N=C(c2ccccc2)N1C1Nc2cc3c(cc2S1)NC(N1C(=O)/C(=C/c2cccs2)N=C1c1ccccc1)S3 (stereo unspecified) | > 100 | 56 | 48.3 | 37.1 |  | > 100 |  | 43.3 | 43.1 | 31.3 | 33.7 | > 100 |  |  |  | 
35 | Cc1nnc2c3c(-c4ccccc4)c(-c4ccccc4)oc3nc(N(C)C)n12 | > 100 | > 100 | > 100 | > 100 | > 100 | > 100 |  | 60.5 | > 100 | > 100 | > 100 |  |  |  |  | 
36 | COc1ccc(-c2cc(-c3ccc(Nc4ccnc5cc(Cl)ccc45)cc3)nc(N)c2C#N)c2ccccc12 | > 100 | > 100 | > 100 | > 100 | > 100 | > 100 | > 100 | > 100 | > 100 | > 100 | > 100 |  |  |  |  | 
37 | Brc1ccc2c(c1)C1=C(CO2)Cc2ccccc2O1 |  | 29.9 | 40.1 | 35 | 31.5 | 62.8 | 33 | 32.3 | 43.7 | 36.3 | 31.1 | 31.8 |  |  |  | 
38 | CN(C)c1ccc(/C=C2\N=C(c3ccccc3)N(c3nc4c(Cl)cc(Cl)cc4s3)C2=O)cc1 | > 100 | > 100 |  | > 100 | > 100 | > 100 | > 100 | > 100 | > 100 | > 100 | > 100 | > 100 |  |  |  | 
